US7026161B2, “Lactobacillus sp. strain and use thereof” (Sesang Life Science, Inc., priority 2001, dated 2006)

System: Lactobacillus paracasei viro-01
Test: Antibiotic sensitivity test (disc)
Format: cell-based
Conditions: for growth-inhibition zone: Mueller Hinton agar, 37° C., 16 hours; for resistance of Lactobacillus paracasei viro-01 to the antibiotic: judged by the zone limits printed per antibiotic (resistant/moderate/sensitive)
Method: Antibiotic sensitivity of the Lactobacillus paracasei viro-01 of the present invention were tested. The antibiotic resistance test was carried out by Scientec Lab Center Co., Ltd.(Daejeon city, Daedeok, Korea) approved by the KFDA.
Antibiotics used were Cephalexin, Flumequine, Furazolidone, Gentamycin, Spectinomycin, Tetracycline, Tiamulin, Neomycin, Chloramphenicol and Kanamycin, and test procedures were as described below.
5 to 6 colonies of cultured Lactobacillus paracasei viro-01 were selected, inoculated into bacterial growth medium composed of peptone 10.0 g/L, beef extract 10.0 g/L, yeast extract 5.0 g/L, glucose 20.0 g/L, Tween 80 1.0 mL/L, K2HPO4 2.0 g/L, sodium acetate 5.0 g/L, triammonium citrate 2.0 g/L, MgSO4.7H2O 0.2 g/L and MnSO4.4H2O 0.2 g/L and incubated at 37° C. Turbidity of said culture was adjusted to MacFarland No. 0.5, and used as test bacteria solution. Said test bacteria solution was smeared on Mueller Hinton agar plates and antibiotic sensitivity test disc was added thereto and incubated at 37° C. for 16 hours.
Antibiotic sensitivity was determined by measuring the area of growth inhibition surrounding each test disc.

Compound: O=C(N[C@H](CO)[C@H](O)c1ccc([N+](=O)[O-])cc1)C(Cl)Cl [chloramphenicol, Chloramphenicol]
- growth-inhibition zone (content 30 μg/disc): 30 mm
- resistance of Lactobacillus paracasei viro-01 to the antibiotic (content 30 μg/disc): none
- resistance of Lactobacillus paracasei viro-01 to the antibiotic (content 30 μg/disc, listed as Chloramphenicol): no resistance

Compound: CC1CCc2cc(F)cc3c(=O)c(C(=O)O)cn1c23 (centres unmarked) [flumequine, Flumequine]
- growth-inhibition zone (content 10 μg/disc): 0 mm
- resistance of Lactobacillus paracasei viro-01 to the antibiotic (content 10 μg/disc): strong
- resistance of Lactobacillus paracasei viro-01 to the antibiotic (content 10 μg/disc, listed as Flumequine): resistance

Compound: O=C1OCCN1/N=C/c1ccc([N+](=O)[O-])o1 [furazolidone, Furazolidone]
- growth-inhibition zone (content 10 μg/disc): 0 mm
- resistance of Lactobacillus paracasei viro-01 to the antibiotic (content 10 μg/disc): strong
- resistance of Lactobacillus paracasei viro-01 to the antibiotic (content 10 μg/disc, listed as Furazolidone): resistance

Compound: NC[C@H]1O[C@H](O[C@H]2[C@H](O)[C@@H](O[C@H]3O[C@H](CO)[C@@H](O)[C@H](N)[C@H]3O)[C@H](N)C[C@@H]2N)[C@H](O)[C@@H](O)[C@@H]1O [kanamycin, Kanamycin]
- growth-inhibition zone (content 10 μg/disc): 9 mm

Compound: CC1=C(C(=O)O)N2C(=O)[C@@H](NC(=O)[C@H](N)c3ccccc3)[C@H]2SC1 [sephalexin, Cephalexin]
- growth-inhibition zone (content 10 μg/disc): 0 mm
- resistance of Lactobacillus paracasei viro-01 to the antibiotic (content 10 μg/disc): strong
- resistance of Lactobacillus paracasei viro-01 to the antibiotic (content 10 μg/disc, listed as Cephalexin): resistance

Compound: CN[C@@H]1[C@H](O)[C@H](NC)[C@H]2O[C@@]3(O)C(=O)C[C@@H](C)O[C@H]3O[C@@H]2[C@H]1O [spectinomycin, Spectinomycin]
- growth-inhibition zone (content 10 μg/disc): 0 mm
- resistance of Lactobacillus paracasei viro-01 to the antibiotic (content 10 μg/disc): strong
- resistance of Lactobacillus paracasei viro-01 to the antibiotic (content 10 μg/disc, listed as Spectinomycin): resistance

Compound: CN(C)[C@@H]1C(O)=C(C(N)=O)C(=O)[C@@]2(O)C(O)=C3C(=O)c4c(O)cccc4[C@@](C)(O)[C@H]3C[C@@H]12 [tetracycline, Tetracycline]
- growth-inhibition zone (content 30 μg/disc): 30 mm

Compound: C=C[C@]1(C)C[C@@H](OC(=O)CSCCN(CC)CC)[C@]2(C)[C@H](C)CC[C@]3(CCC(=O)[C@H]32)[C@@H](C)[C@@H]1O [tiamulin, Tiamulin]
- growth-inhibition zone (content 10 μg/disc): 28 mm
- resistance of Lactobacillus paracasei viro-01 to the antibiotic (content 10 μg/disc): none
- resistance of Lactobacillus paracasei viro-01 to the antibiotic (content 10 μg/disc, listed as Tiamulin): no resistance

Compound: Gentamycin
- growth-inhibition zone (content 10 μg/disc): 13 mm
- resistance of Lactobacillus paracasei viro-01 to the antibiotic (content 10 μg/disc): moderate
- resistance of Lactobacillus paracasei viro-01 to the antibiotic (content 10 μg/disc, listed as Gentamycin): moderate resistance

Compound: Neomycin
- growth-inhibition zone (content 10 μg/disc): 13 mm
- resistance of Lactobacillus paracasei viro-01 to the antibiotic (content 10 μg/disc): moderate
- resistance of Lactobacillus paracasei viro-01 to the antibiotic (content 10 μg/disc, listed as Neomycin): moderate resistance
